Legend:
[1] = target: T1, human recombinant ROCK II (Homo sapiens, UniProt O75116); test: Determination of Rho kinase inhibition (Caliper peptide phosphorylation assay); format: biochemical; settings: 60 min at 32° C., negative decadal logarithm of the IC50
T1 construct: N-terminal His6-tagged recombinant human ROCK-II residues 11-552; His6 (N); purchased Millipore GmbH, Schwalbach, Germany
How it was run: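 His6-tagged human ROCK II (residues 11-552) phosphorylated a fluorescein-labelled peptide for 60 min at 32° C in Tris-HCl pH 7.4 with MgCl2, DTT and BSA, using 3 μM peptide and 120 μM ATP as diluted stocks. EDTA-stopped; phosphopeptide separated and detected by Caliper mobility shift; IC50 determined.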

[2] = target: T2, recombinant human PKG1-beta (Homo sapiens, UniProt Q13976); test: Determination of Protein Kinase G inhibition (Caliper peptide phosphorylation assay); format: biochemical; settings: recombinant human PKG1-beta versus ROCK II
T2 construct: Active recombinant human PKG1-beta (full-length, with N-terminal His-tag); His-tag (N); purchased Millipore GmbH, Schwalbach, Germany
T2 sequence (Q13976 1-686 isoform Q13976-2): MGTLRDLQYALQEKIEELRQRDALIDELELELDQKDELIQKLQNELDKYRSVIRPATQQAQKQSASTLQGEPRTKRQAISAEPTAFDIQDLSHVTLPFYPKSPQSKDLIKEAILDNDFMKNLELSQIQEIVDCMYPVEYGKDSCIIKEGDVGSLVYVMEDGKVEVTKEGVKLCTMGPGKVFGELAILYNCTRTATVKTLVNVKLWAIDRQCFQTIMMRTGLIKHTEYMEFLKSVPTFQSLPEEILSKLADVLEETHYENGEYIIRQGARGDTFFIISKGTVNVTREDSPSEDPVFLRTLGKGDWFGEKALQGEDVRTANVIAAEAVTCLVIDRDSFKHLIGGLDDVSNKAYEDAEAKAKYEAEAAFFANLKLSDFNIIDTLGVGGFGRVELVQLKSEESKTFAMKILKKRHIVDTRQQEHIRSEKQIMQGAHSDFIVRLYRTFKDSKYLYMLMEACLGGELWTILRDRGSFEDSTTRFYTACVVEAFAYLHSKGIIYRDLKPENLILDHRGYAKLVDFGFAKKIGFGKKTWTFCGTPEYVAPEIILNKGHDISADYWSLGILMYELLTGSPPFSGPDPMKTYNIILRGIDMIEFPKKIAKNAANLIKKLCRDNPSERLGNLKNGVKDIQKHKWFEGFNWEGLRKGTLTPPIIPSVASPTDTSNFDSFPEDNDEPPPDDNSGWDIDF
How it was run: (§1)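 Full-length His-tagged PKG1-beta (150 ng/ml working) or His-tagged PKA residues 1-351 (30 ng/ml working) was mixed with compound in pH 7.4 Tris/MgCl2/DTT buffer. Fluorescein-peptide substrate and ATP (3 μM and 120 μM working) were then added for 60 min at 32 °C before an EDTA stop. Phosphopeptide was separated electrophoretically on a Caliper instrument to derive IC50.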

[3] = target: T3, recombinant human PKA (Homo sapiens, UniProt P17612); test: Determination of Protein Kinase A inhibition (Caliper peptide phosphorylation assay); format: biochemical; settings: recombinant human PKA versus ROCK II
T3 construct: Active recombinant human PKA (residues 1-351, N-terminal His-tag); His-tag (N); purchased Invitrogen, Karlsruhe, Germany
How it was run: as §1

[4] = system: Protein Kinase G; settings: Rho kinase versus Protein Kinase G; cited from earlier work

T1 sequence (O75116 11-552): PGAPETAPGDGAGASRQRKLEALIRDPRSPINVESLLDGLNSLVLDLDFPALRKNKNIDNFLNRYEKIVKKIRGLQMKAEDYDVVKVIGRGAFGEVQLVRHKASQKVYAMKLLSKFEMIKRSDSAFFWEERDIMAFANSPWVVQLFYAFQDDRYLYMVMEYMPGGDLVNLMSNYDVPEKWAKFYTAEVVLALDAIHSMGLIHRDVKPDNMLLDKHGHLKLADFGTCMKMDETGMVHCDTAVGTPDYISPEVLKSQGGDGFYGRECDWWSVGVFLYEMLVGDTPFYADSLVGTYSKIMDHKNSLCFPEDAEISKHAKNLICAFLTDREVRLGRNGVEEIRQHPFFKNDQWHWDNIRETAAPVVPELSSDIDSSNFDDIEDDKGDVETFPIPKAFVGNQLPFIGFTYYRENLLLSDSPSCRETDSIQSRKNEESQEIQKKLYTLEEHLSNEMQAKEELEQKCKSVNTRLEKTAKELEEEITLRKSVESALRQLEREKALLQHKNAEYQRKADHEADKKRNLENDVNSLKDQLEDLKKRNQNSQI

Molecule | pIC50 [1] | Selectivity against PKG [2] | Selectivity against PKA [3] | selectivity against Protein Kinase G [4] [fold]
CCC(N)[C@]1(c2ccccc2)CC[C@H](Oc2cc3cc[nH]c(=O)c3cc2F)CC1 (stereo partly drawn) [Example 87, cis-6-[4-(1-Amino-propyl)-4-phenyl-cyclohexyloxy]-7-fluoro-2H-iso quinolin-1-one] | ++++++ (7.0≦pIC50<8.0) | >100 | >1000 | –
CCC(N)[C@]1(c2ccccc2)CC[C@H](Oc2c(F)cc3c(=O)[nH]ccc3c2C)CC1 (stereo partly drawn) [Example 88, cis-6-[4-(1-Amino-propyl)-4-phenyl-cyclohexyloxy]-7-fluoro-5-methyl-2H-isoquinolin-1-one] | +++++ (6.0≦pIC50<7.0) | >10 | >10 | –
CCC(N)[C@]1(c2ccc(C#N)cc2)CC[C@H](Oc2cc3cc[nH]c(=O)c3cc2Cl)CC1 (stereo partly drawn) [Example 97, cis-4-[1-(1-Amino-propyl)-4-(7-chloro-1-oxo-1,2-dihydro-isoquinolin-6-yloxy)-cyclohexyl]benzonitrile] | +++++++ (8.0≦pIC50) | >300 | >1000 | –
CCC(N)[C@]1(c2cccc(S(C)(=O)=O)c2)CC[C@H](Oc2cc3cc[nH]c(=O)c3cc2Cl)CC1 (stereo partly drawn) [Example 99, cis-6-[4-(1-Amino-propyl)-4-(3-methanesulfonyl-phenyl)-cyclohexyloxy]-7-chloro-2H-isoquinolin-1-one] | +++++++ (8.0≦pIC50) | >100 | >1000 | –
CCC(N)[C@@]1(c2ccccc2)C[C@@H]2C[C@H]1CC2Oc1cc2cc[nH]c(=O)c2cc1Cl (stereo partly drawn) [Example 100, 6-[(1S,4S,5S)-5-(1-Amino-propyl)-5-phenyl-bicyclo[2.2.1]hept-2-yloxy]-7-chloro-2H-isoquinolin-1-one] | +++++++ (8.0≦pIC50) | >1000 | >1000 | –
CC(N)C[C@]1(c2ccc(F)cc2)CC[C@H](Oc2cc3cc[nH]c(=O)c3cc2Cl)CC1 (stereo partly drawn) [Example 109, cis-6-[4-(2-Amino-propyl)-4-(4-fluoro-phenyl)-cyclohexyloxy]-7-chloro-2H-isoquinolin-1-one] | ++++++ (7.0≦pIC50<8.0) | >100 | >300 | –
CCC(N)C[C@]1(c2ccc(F)cc2)CC[C@H](Oc2cc3cc[nH]c(=O)c3cc2Cl)CC1 (stereo partly drawn) [Example 110, cis-6-[4-(2-Amino-butyl)-4-(4-fluoro-phenyl)-cyclohexyloxy]-7-chloro-2H-isoquinolin-1-one] | ++++++ (7.0≦pIC50<8.0) | >100 | >300 | –
NC(CF)[C@]1(c2ccc(F)cc2)CC[C@H](Oc2cc3cc[nH]c(=O)c3cc2Cl)CC1 (stereo partly drawn) [Example 114, cis-6-[4-(1-Amino-2-fluoro-ethyl)-4-(4-fluoro-phenyl)-cyclohexyloxy]-7-chloro-2H-isoquinolin-1-one] | +++++++ (8.0≦pIC50) | >1000 | >1000 | –
CCC(N)C1(c2ccc(F)cc2)CC(Oc2cc3cc[nH]c(=O)c3cc2Cl)C1 (stereo not shown) [Example 125, 6-[3-(1-Amino-propyl)-3-(4-fluoro-phenyl)-cyclobutyloxy]-7-chloro-2H-isoquinolin-1-one] | +++++ (6.0≦pIC50<7.0) | >10 | >10 | –
NC(c1ccccc1)C1CCC(Oc2cc3cc[nH]c(=O)c3cc2Cl)CC1 (stereo not shown) [Example 128, 6-[4-(amino-phenyl-methyl)-cyclohexyloxy]-7-chloro-2H-isoquinolin-1-one] | +++++ (6.0≦pIC50<7.0) | >10 | >10 | –
C[C@@H](N)[C@H]1CC[C@H](C(=O)Nc2ccncc2)CC1 [Example Y-27632] | – | – | – | 20
cis-6-[4-(1- Amino-propyl)-4- (3-bromo- phenyl)-cyclo hexyloxy]-7- chloro-2H-iso quinolin-1-one [Example 29] | +++++++ (8.0≦pIC50) | >1000 | >1000 | –

— US8541449B2, “Substituted isoquinolines and isoquinolinones as Rho kinase inhibitors” (Sanofi, priority 2008, dated 2013)
